Data taken from the supplement of paper PMC10307832.

How the values were obtained:
Test in all cases: relative viability (nuclei count vs DMSO), 5 days (fraction); higher = more cells survive
201T = system: 201T
Summary of the method: (§1)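 Medians of duplicate plates are given as relative viability. That measure is the nuclei count in treated wells divided by the count in vehicle wells. Counts were taken on 4× images of lung cancer cell lines in 1536-well plates, 5 days after pin-tool dosing the day after seeding with one drug alone or a fixed anchor-drug dose plus five library-drug doses (not always all listed) in √10 steps.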

BEN = system: BEN
Summary of the method: as §1

COR-L 105 = system: COR-L 105
Summary of the method: as §1

EKVX = system: EKVX
Summary of the method: as §1

EPLC-272H = system: EPLC-272H
Summary of the method: as §1

H3255 = system: H3255
Summary of the method: as §1

HCC-44 = system: HCC-44
Summary of the method: as §1

HCC-827 = system: HCC-827
Summary of the method: as §1

LCLC-97TM1 = system: LCLC-97TM1
Summary of the method: as §1

LOU-NH91 = system: LOU-NH91
Summary of the method: as §1

LU99A = system: LU99A
Summary of the method: as §1

NCI-H1437 = system: NCI-H1437
Summary of the method: as §1

NCI-H1666 = system: NCI-H1666
Summary of the method: as §1

NCI-H1975 = system: NCI-H1975
Summary of the method: as §1

NCI-H2085 = system: NCI-H2085
Summary of the method: as §1

NCI-H2087 = system: NCI-H2087
Summary of the method: as §1

NCI-H2170 = system: NCI-H2170
Summary of the method: as §1

NCI-H2342 = system: NCI-H2342
Summary of the method: as §1

NCI-H647 = system: NCI-H647
Summary of the method: as §1

NCI-H650 = system: NCI-H650
Summary of the method: as §1

PC-3 [JPC-3] = system: PC-3 [JPC-3]
Summary of the method: as §1

SW 1573 = system: SW 1573
Summary of the method: as §1

## O=c1cc(-c2cccc3c2Sc2ccccc2S3)oc(N2CCOCC2)c1 + O=C(CCCCCCC(=O)Nc1ccccc1)NO [Vorinostat] (partner 1 µM)
201T; first compound 0.08 µM
  relative viability: 0.919
201T; first compound 0.253 µM
  relative viability: 1.05
201T; first compound 0.8 µM
  relative viability: 0.976
201T; first compound 2.53 µM
  relative viability: 0.912
201T; first compound 8 µM
  relative viability: 0.884
BEN; first compound 0.08 µM
  relative viability: 0.521
BEN; first compound 0.253 µM
  relative viability: 0.645
BEN; first compound 0.8 µM
  relative viability: 0.594
BEN; first compound 2.53 µM
  relative viability: 0.59
BEN; first compound 8 µM
  relative viability: 0.629
COR-L 105; first compound 0.08 µM
  relative viability: 0.782
COR-L 105; first compound 0.253 µM
  relative viability: 0.828
COR-L 105; first compound 0.8 µM
  relative viability: 0.751
COR-L 105; first compound 2.53 µM
  relative viability: 0.795
COR-L 105; first compound 8 µM
  relative viability: 1.1
EKVX; first compound 0.08 µM
  relative viability: 0.862
EKVX; first compound 0.253 µM
  relative viability: 0.839
EKVX; first compound 0.8 µM
  relative viability: 0.601
EKVX; first compound 2.53 µM
  relative viability: 0.675
EKVX; first compound 8 µM
  relative viability: 0.569
EPLC-272H; first compound 0.08 µM
  relative viability: 0.449
EPLC-272H; first compound 0.253 µM
  relative viability: 0.363
EPLC-272H; first compound 0.8 µM
  relative viability: 0.291
EPLC-272H; first compound 2.53 µM
  relative viability: 0.629
EPLC-272H; first compound 8 µM
  relative viability: 0.441
H3255; first compound 0.08 µM
  relative viability: 0.811
H3255; first compound 0.253 µM
  relative viability: 0.78
H3255; first compound 0.8 µM
  relative viability: 0.805
H3255; first compound 2.53 µM
  relative viability: 0.878
H3255; first compound 8 µM
  relative viability: 0.896
HCC-44; first compound 0.08 µM
  relative viability: 1.13
HCC-44; first compound 0.253 µM
  relative viability: 1.05
HCC-44; first compound 0.8 µM
  relative viability: 1.17
HCC-44; first compound 2.53 µM
  relative viability: 1.05
HCC-44; first compound 8 µM
  relative viability: 1.08
HCC-827; first compound 0.08 µM
  relative viability: 0.768
HCC-827; first compound 0.253 µM
  relative viability: 0.945
HCC-827; first compound 0.8 µM
  relative viability: 0.77
HCC-827; first compound 2.53 µM
  relative viability: 0.476
HCC-827; first compound 8 µM
  relative viability: 0.923
LCLC-97TM1; first compound 0.08 µM
  relative viability: 0.638
LCLC-97TM1; first compound 0.253 µM
  relative viability: 0.927
LCLC-97TM1; first compound 0.8 µM
  relative viability: 0.803
LCLC-97TM1; first compound 2.53 µM
  relative viability: 0.602
LCLC-97TM1; first compound 8 µM
  relative viability: 1.06
LOU-NH91; first compound 0.08 µM
  relative viability: 0.91
LOU-NH91; first compound 0.253 µM
  relative viability: 0.943
LOU-NH91; first compound 0.8 µM
  relative viability: 0.854
LOU-NH91; first compound 2.53 µM
  relative viability: 0.745
LOU-NH91; first compound 8 µM
  relative viability: 0.898
LU99A; first compound 0.08 µM
  relative viability: 0.429
LU99A; first compound 0.253 µM
  relative viability: 0.499
LU99A; first compound 0.8 µM
  relative viability: 0.639
LU99A; first compound 2.53 µM
  relative viability: 0.514
LU99A; first compound 8 µM
  relative viability: 0.669
NCI-H1437; first compound 0.08 µM
  relative viability: 0.857
NCI-H1437; first compound 0.253 µM
  relative viability: 0.9
NCI-H1437; first compound 0.8 µM
  relative viability: 0.847
NCI-H1437; first compound 2.53 µM
  relative viability: 0.761
NCI-H1437; first compound 8 µM
  relative viability: 0.857
NCI-H1666; first compound 0.08 µM
  relative viability: 1
NCI-H1666; first compound 0.253 µM
  relative viability: 1.15
NCI-H1666; first compound 0.8 µM
  relative viability: 0.963
NCI-H1666; first compound 2.53 µM
  relative viability: 1.02
NCI-H1666; first compound 8 µM
  relative viability: 1.06
NCI-H1975; first compound 0.08 µM
  relative viability: 0.687
NCI-H1975; first compound 0.253 µM
  relative viability: 0.827
NCI-H1975; first compound 0.8 µM
  relative viability: 0.707
NCI-H1975; first compound 2.53 µM
  relative viability: 0.671
NCI-H1975; first compound 8 µM
  relative viability: 0.749
NCI-H2085; first compound 0.08 µM
  relative viability: 0.739
NCI-H2085; first compound 0.253 µM
  relative viability: 0.825
NCI-H2085; first compound 0.8 µM
  relative viability: 0.687
NCI-H2085; first compound 2.53 µM
  relative viability: 0.759
NCI-H2085; first compound 8 µM
  relative viability: 0.612
NCI-H2087; first compound 0.08 µM
  relative viability: 0.862
NCI-H2087; first compound 0.253 µM
  relative viability: 0.757
NCI-H2087; first compound 0.8 µM
  relative viability: 1.09
NCI-H2087; first compound 2.53 µM
  relative viability: 0.727
NCI-H2087; first compound 8 µM
  relative viability: 0.917
NCI-H2170; first compound 0.08 µM
  relative viability: 0.857
NCI-H2170; first compound 0.253 µM
  relative viability: 0.952
NCI-H2170; first compound 0.8 µM
  relative viability: 0.92
NCI-H2170; first compound 2.53 µM
  relative viability: 0.693
NCI-H2170; first compound 8 µM
  relative viability: 0.932
NCI-H2342; first compound 0.08 µM
  relative viability: 0.752
NCI-H2342; first compound 0.253 µM
  relative viability: 0.831
NCI-H2342; first compound 0.8 µM
  relative viability: 0.8
NCI-H2342; first compound 2.53 µM
  relative viability: 0.691
NCI-H2342; first compound 8 µM
  relative viability: 0.699
NCI-H647; first compound 0.08 µM
  relative viability: 0.527
NCI-H647; first compound 0.253 µM
  relative viability: 0.691
NCI-H647; first compound 0.8 µM
  relative viability: 0.766
NCI-H647; first compound 2.53 µM
  relative viability: 0.638
NCI-H647; first compound 8 µM
  relative viability: 0.782
NCI-H650; first compound 0.08 µM
  relative viability: 0.473
NCI-H650; first compound 0.253 µM
  relative viability: 0.478
NCI-H650; first compound 0.8 µM
  relative viability: 0.393
NCI-H650; first compound 2.53 µM
  relative viability: 0.345
NCI-H650; first compound 8 µM
  relative viability: 0.458
PC-3 [JPC-3]; first compound 0.08 µM
  relative viability: 0.579
PC-3 [JPC-3]; first compound 0.253 µM
  relative viability: 0.788
PC-3 [JPC-3]; first compound 0.8 µM
  relative viability: 0.769
PC-3 [JPC-3]; first compound 2.53 µM
  relative viability: 0.79
PC-3 [JPC-3]; first compound 8 µM
  relative viability: 0.851
SW 1573; first compound 0.08 µM
  relative viability: 0.702
SW 1573; first compound 0.253 µM
  relative viability: 0.933
SW 1573; first compound 0.8 µM
  relative viability: 1.01
SW 1573; first compound 2.53 µM
  relative viability: 0.771
SW 1573; first compound 8 µM
  relative viability: 0.907
